The structures appear in SMILES notation.

From publication PMC9959553, “Promising Antifungal Molecules against Mucormycosis Agents Identified from Pandemic Response Box®: In Vitro and In Silico Analyses” (Journal of Fungi, 2023) come the findings set out here.

The experiment concerns R. oryzae UCP1295. The experiment in a line: Screening of the Pandemic Response Box library at 5 µM. The format is cell-based, Rhizopus oryzae. Particulars: 48 h, Table S1, mean of the four values. An outline of the steps: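 Growth inhibition was read at 600 nm after conidia (2 × 10^5/mL) grew 48 h at 37 °C, 5% CO2, with 5 μM compound in glucose-supplemented (2%), MOPS-buffered RPMI (pH 7.2). Controls were posaconazole at 5 μM and 1% DMSO. The selection cut-off was at least 60% inhibition.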
Take `O=C(O)/C=C/C=C/c1cccc(Oc2cc(Cl)cc(Cl)c2)c1` [MMV1633963]: the “% of growth inhibition, Mean” value was 12.3%.

Regarding `Fc1ccc(-n2cc(Cn3c(-c4cccc(F)c4)nc4ccccc43)nn2)cc1` [MMV1580850], the “% of growth inhibition, Mean” value was -26.0%.

As to `Nc1nnnn1CCOc1c2[nH]c3ccc(Cl)cc3c2cc2c1[nH]c1ccc(Cl)cc12` [MMV1633966], the “% of growth inhibition, Mean” value is listed as -30.2%.

As for `Nc1nc(Nc2ccc3nc(-c4ccc(F)cc4)cc(N)c3c2)cc(-c2ccccc2)n1` [MMV1593541], the “% of growth inhibition, Mean” value was -21.7%.

As for `CCOC(=O)N1CCN(c2ccc(Cl)cc2)CC1` [MMV1578898], the “% of growth inhibition, Mean” value came to 0.3%.

Consider `Cc1ncc([N+](=O)[O-])n1CC(C)O` (stereo not drawn) [MMV002287], for which the “% of growth inhibition, Mean” value is on record as -34.1%.

As for `Cc1c(CN(C)C(=O)/C=C/c2cnc3c(c2)C(C)(C)C(=O)N3)oc2ccccc12` [MMV1579788], the “% of growth inhibition, Mean” value is given as -28.8%.

Consider `O=C(NCc1ccc2c3c(cccc13)C(=O)N2)c1cccs1` [MMV1341773], for which the “% of growth inhibition, Mean” value is -28.3%.

Regarding `O[C@@](Cn1cnnn1)(c1ccc(F)cc1F)C(F)(F)c1ccc(-c2ccc(OCC(F)(F)F)cc2)cn1` [MMV1634386], the “% of growth inhibition, Mean” value is -15.2%.

Regarding `COC(=O)Nc1nc2c(C)cccc2[nH]1` [MMV1782387], the “% of growth inhibition, Mean” value is -30.6%.

With `COc1ccc2c(c1)cc(CNC(=O)c1cc3ccccc3o1)n2CC(=O)O` [MMV1581553], the “% of growth inhibition, Mean” value was -20.7%.

Turning to `Oc1cc(-c2cccc3ccccc23)[nH]n1` [MMV422940], the “% of growth inhibition, Mean” value is reported as -11.7%.

Turning to `Cc1onc(-c2ccccc2)c1-c1ccc(S(N)(=O)=O)cc1` [MMV002260], the “% of growth inhibition, Mean” value is given as -15.5%.

`COC(=O)Nc1nc2ccccc2[nH]1` [MMV344625]: the “% of growth inhibition, Mean” value is -13.3%.

Consider `O=C(/C(=C/c1ccc(Cl)cc1Cl)n1ccnc1)c1ccc(Cl)cc1` [MMV1634491], for which the “% of growth inhibition, Mean” value is on record as -15.1%.

Take `O=C(O)[C@H]1C2CCC(CC2)[C@@H]1Nc1nc(-c2c[nH]c3ncc(F)cc23)ncc1F` [MMV1593516]: the “% of growth inhibition, Mean” value was -10.6%.

With `Cn1cncc1[C@@](N)(c1ccc(Cl)cc1)c1ccc2c(c1)c(-c1cccc(Cl)c1)cc(=O)n2C` [MMV658803], the “% of growth inhibition, Mean” value is on record as -24.4%.

For `Nc1cc(-c2nc3ccccc3[nH]2)n[nH]c1=O` [MMV975972], the “% of growth inhibition, Mean” value was determined as 0.3%.

For `CCC(C)n1ncn(-c2ccc(N3CCN(c4ccc(OCC5COC(Cn6cncn6)(c6ccc(Cl)cc6Cl)O5)cc4)CC3)cc2)c1=O` (stereo not drawn) [MMV637528], the “% of growth inhibition, Mean” value is listed as -26.8%.

Consider `CCCCCCCc1[nH]c2ccccc2c(=O)c1O` [MMV1578561], for which the “% of growth inhibition, Mean” value is recorded as -24.4%.

For the compound `CCN(CC)CCn1c(=N)n(CC(O)COc2ccc(Cl)cc2Cl)c2ccccc21` (stereo not drawn) [MMV000725], the “% of growth inhibition, Mean” value was -27.5%.

Consider `CC(C)(C)c1ccc(C(=O)NC(=O)N2CCCc3ccccc32)cc1` [MMV1782212], for which the “% of growth inhibition, Mean” value is reported as -4.9%.

Take `O=S(=O)(NCB(O)O)c1cc2c(Cl)ccc(Cl)c2s1` [MMV1580841]: the “% of growth inhibition, Mean” value is listed as -42.4%.

On to `COc1ccc(-n2cnc3cc(NCc4ccco4)ccc32)cc1` [MMV617332], for which the “% of growth inhibition, Mean” value came to 22.8%.

With `O=C(NCc1cccc2ccccc12)c1cccs1` [MMV1579845], the “% of growth inhibition, Mean” value is on record as -15.7%.

Regarding `CNCC(=O)OCc1cccnc1N(C)C(=O)OC(C)[n+]1cnn(C[C@](O)(c2cc(F)ccc2F)[C@@H](C)c2nc(-c3ccc(C#N)cc3)cs2)c1` (stereo partly drawn) [MMV1634494], the “% of growth inhibition, Mean” value was -14.8%.

As to `Oc1ccc(NCc2ccccc2OCc2ccccc2)cc1` [MMV1580504], the “% of growth inhibition, Mean” value is -5.9%.

Turning to `NC(=O)c1cnccn1` [MMV003249], the “% of growth inhibition, Mean” value was -5.2%.

On to `Nc1cnn(C2OC(CO)C(O)C2O)c(=O)n1` (stereo not drawn) [MMV1580495], for which the “% of growth inhibition, Mean” value is on record as -5.9%.

As to `O=C(NCc1ccc(F)cc1)c1c(O)c2ncccc2[nH]c1=O` [MMV1782097], the “% of growth inhibition, Mean” value worked out at 3.9%.
